Assay results: the NIST ThermoML archive (doi:10.1021/je060382+)
Several values for one entry are separate records, joined by “and”; a condition that tells them apart may be missing. Equal entries are not always repeated.

Assays:
[1] = Liquid; for viscosity: Falling or rolling sphere viscometry
[2] = refractive index (Na D-line) (dimensionless); settings: 293.1 K; 101.33 kPa; Liquid; Standard Abbe refractometry

CC(C)CCCCCCCOC(=O)c1ccccc1C(=O)OCCCCCCCC(C)C
[1]
Settings	mass density	viscosity
273.15 K, 101.33 kPa	980.73 kg/m3 and 980.75 kg/m3	627.6 mPa·s and 664.5 mPa·s
278.15 K, 101.33 kPa	977.12 kg/m3	393.5 mPa·s and 410.8 mPa·s and 410.5 mPa·s
283.15 K, 101.33 kPa	973.48 kg/m3 and 973.49 kg/m3	255.2 mPa·s and 266.8 mPa·s
288.15 K, 101.33 kPa	969.89 kg/m3	170.9 mPa·s and 178.6 mPa·s
293.15 K, 101.33 kPa	966.37 kg/m3 and 966.38 kg/m3 and 966.37 kg/m3	123.5 mPa·s [middle of 5 runs]
293.15 K, 19400 kPa	–	202.4 mPa·s
293.15 K, 39700 kPa	–	335 mPa·s
293.15 K, 59500 kPa	–	534.5 mPa·s
293.15 K, 103600 kPa	–	1435.6 mPa·s
293.15 K, 118200 kPa	–	1981.5 mPa·s
293.15 K, 118900 kPa	–	2033.8 mPa·s
293.15 K, 159600 kPa	–	4719.2 mPa·s
298.15 K, 101.33 kPa	962.83 kg/m3 and 962.84 kg/m3	87.7 mPa·s and 84.1 mPa·s and 88.4 mPa·s
298.15 K, 25400 kPa	–	165.5 mPa·s
298.15 K, 50700 kPa	–	300.2 mPa·s
298.15 K, 75500 kPa	–	525 mPa·s
298.15 K, 100600 kPa	–	904.7 mPa·s
303.15 K, 101.33 kPa	959.31 kg/m3 and 959.29 kg/m3 and 959.3 kg/m3	65 mPa·s [middle of 4 runs]
308.15 K, 101.33 kPa	–	48.9 mPa·s [middle of 4 runs]
313.15 K, 100 kPa	–	37.6 mPa·s and 36.8 mPa·s
313.15 K, 101.33 kPa	952.2 kg/m3 and 952.21 kg/m3	37.5 mPa·s [middle of 4 runs]
313.15 K, 700 kPa	–	38.3 mPa·s
313.15 K, 25000 kPa	–	65.4 mPa·s and 63.9 mPa·s
313.15 K, 25800 kPa	–	66 mPa·s
313.15 K, 50000 kPa	–	109.4 mPa·s and 107 mPa·s
313.15 K, 50600 kPa	–	110.3 mPa·s
313.15 K, 75500 kPa	–	181 mPa·s
313.15 K, 100000 kPa	–	290 mPa·s and 271 mPa·s and 273 mPa·s
313.15 K, 100300 kPa	–	291.6 mPa·s
313.15 K, 125100 kPa	–	463.2 mPa·s
313.15 K, 150400 kPa	–	732.6 mPa·s
313.15 K, 175800 kPa	–	1143.6 mPa·s
313.15 K, 197600 kPa	–	1680 mPa·s
313.15 K, 200000 kPa	–	1580 mPa·s and 1665 mPa·s and 1530 mPa·s
313.15 K, 227900 kPa	–	2671.7 mPa·s
313.15 K, 252000 kPa	–	3750 mPa·s and 3932.3 mPa·s
313.15 K, 300000 kPa	–	8110 mPa·s and 7270 mPa·s
313.15 K, 400000 kPa	–	36300 mPa·s and 33700 mPa·s
313.15 K, 500000 kPa	–	168000 mPa·s and 158000 mPa·s
313.15 K, 600000 kPa	–	782000 mPa·s and 694000 mPa·s
313.15 K, 700000 kPa	–	3820000 mPa·s and 3410000 mPa·s
313.15 K, 800000 kPa	–	2.36e+07 mPa·s and 1.98e+07 mPa·s
323.15 K, 101.33 kPa	945.12 kg/m3 and 945.13 kg/m3	23 mPa·s and 23.7 mPa·s
333.15 K, 101.33 kPa	938.05 kg/m3 and 938.07 kg/m3	15.9 mPa·s [middle of 4 runs]
338.15 K, 100 kPa	–	13.2 mPa·s and 13.08 mPa·s
338.15 K, 101.33 kPa	–	13.3 mPa·s and 13.2 mPa·s and 13 mPa·s
338.15 K, 500 kPa	–	13.3 mPa·s
338.15 K, 25000 kPa	–	20.2 mPa·s
338.15 K, 30500 kPa	–	22.7 mPa·s
338.15 K, 50000 kPa	–	30.7 mPa·s and 31.1 mPa·s
338.15 K, 60700 kPa	–	37.8 mPa·s
338.15 K, 90600 kPa	–	60.9 mPa·s
338.15 K, 99500 kPa	–	70.9 mPa·s
338.15 K, 100000 kPa	–	67.7 mPa·s and 69.4 mPa·s
338.15 K, 120500 kPa	–	96.3 mPa·s
338.15 K, 150100 kPa	–	149.6 mPa·s
338.15 K, 180400 kPa	–	229.2 mPa·s
338.15 K, 200000 kPa	–	291 mPa·s and 286 mPa·s and 299 mPa·s
338.15 K, 200600 kPa	–	307.8 mPa·s
338.15 K, 250700 kPa	–	614.9 mPa·s
338.15 K, 275600 kPa	–	856.5 mPa·s
338.15 K, 300000 kPa	–	1131 mPa·s [middle of 4 runs]
338.15 K, 301000 kPa	–	1203.7 mPa·s
338.15 K, 321800 kPa	–	1571 mPa·s
338.15 K, 352700 kPa	–	2381 mPa·s
338.15 K, 370500 kPa	–	2998.7 mPa·s
338.15 K, 394000 kPa	–	3890 mPa·s
338.15 K, 394400 kPa	–	4005.5 mPa·s
338.15 K, 500000 kPa	–	14200 mPa·s and 13100 mPa·s
338.15 K, 1000000 kPa	–	7420000 mPa·s and 6141000 mPa·s
343.15 K, 101.33 kPa	930.99 kg/m3 and 931.01 kg/m3	11.2 mPa·s [middle of 4 runs]
348.15 K, 101.33 kPa	–	9.63 mPa·s and 9.65 mPa·s
348.15 K, 11100 kPa	–	11.7 mPa·s
348.15 K, 26500 kPa	–	15.1 mPa·s
348.15 K, 52600 kPa	–	22.9 mPa·s
348.15 K, 78900 kPa	–	33.7 mPa·s
348.15 K, 81000 kPa	–	35 mPa·s
348.15 K, 105700 kPa	–	49.67 mPa·s
348.15 K, 124200 kPa	–	65.18 mPa·s
348.15 K, 125700 kPa	–	66 mPa·s
348.15 K, 149800 kPa	–	92 mPa·s
348.15 K, 175700 kPa	–	130.3 mPa·s
348.15 K, 202300 kPa	–	186.52 mPa·s
348.15 K, 225400 kPa	–	250 mPa·s
348.15 K, 274700 kPa	–	467.3 mPa·s
348.15 K, 275700 kPa	–	472.3 mPa·s
348.15 K, 324900 kPa	–	866.8 mPa·s
348.15 K, 372500 kPa	–	1541.5 mPa·s
353.15 K, 101.33 kPa	923.95 kg/m3 and 923.98 kg/m3 and 923.97 kg/m3	8.12 mPa·s and 8.35 mPa·s
363.15 K, 101.33 kPa	916.91 kg/m3 and 916.94 kg/m3	–
373.15 K, 100 kPa	–	4.67 mPa·s and 4.7 mPa·s
373.15 K, 25000 kPa	–	6.73 mPa·s and 6.86 mPa·s
373.15 K, 50000 kPa	–	9.66 mPa·s and 9.77 mPa·s
373.15 K, 100000 kPa	–	18 mPa·s and 18.5 mPa·s
373.15 K, 200000 kPa	–	56.6 mPa·s and 57.8 mPa·s
373.15 K, 300000 kPa	–	163 mPa·s and 166 mPa·s and 165 mPa·s
373.15 K, 400000 kPa	–	453 mPa·s [middle of 4 runs]

Settings	mass density [kg/m3]
[1], 293.1 K, 101.33 kPa, Vibrating tube method	967.6

Settings	refractive index
[2]	1.4849
